Laboratory results as given in ChEMBL document CHEMBL3797197, “Design and synthesis of triazole-based peptidomimetics of a PSD-95 PDZ domain inhibitor” (Medchemcomm, 2016).
Active and inactive are the calls of the source. The calls are words filed in the database; no cut-off is given here. Residues, ends and D or L forms follow the SMILES beside them.

What was measured:
[1] = molecular target: T1, Disks large homolog 4 (Homo sapiens, UniProt P78352); assay: Displacement of Cy5-GluN2B from N-terminal His-tagged full length human PSD-95alpha PDZ2 domain (155 to 249 residues) without exon 4b expressed in Escherichia coli BL21(DE3)pLysS by fluorescence polarization assay
Target sequence in this assay (P78352 whole entry, the tested form may be a part): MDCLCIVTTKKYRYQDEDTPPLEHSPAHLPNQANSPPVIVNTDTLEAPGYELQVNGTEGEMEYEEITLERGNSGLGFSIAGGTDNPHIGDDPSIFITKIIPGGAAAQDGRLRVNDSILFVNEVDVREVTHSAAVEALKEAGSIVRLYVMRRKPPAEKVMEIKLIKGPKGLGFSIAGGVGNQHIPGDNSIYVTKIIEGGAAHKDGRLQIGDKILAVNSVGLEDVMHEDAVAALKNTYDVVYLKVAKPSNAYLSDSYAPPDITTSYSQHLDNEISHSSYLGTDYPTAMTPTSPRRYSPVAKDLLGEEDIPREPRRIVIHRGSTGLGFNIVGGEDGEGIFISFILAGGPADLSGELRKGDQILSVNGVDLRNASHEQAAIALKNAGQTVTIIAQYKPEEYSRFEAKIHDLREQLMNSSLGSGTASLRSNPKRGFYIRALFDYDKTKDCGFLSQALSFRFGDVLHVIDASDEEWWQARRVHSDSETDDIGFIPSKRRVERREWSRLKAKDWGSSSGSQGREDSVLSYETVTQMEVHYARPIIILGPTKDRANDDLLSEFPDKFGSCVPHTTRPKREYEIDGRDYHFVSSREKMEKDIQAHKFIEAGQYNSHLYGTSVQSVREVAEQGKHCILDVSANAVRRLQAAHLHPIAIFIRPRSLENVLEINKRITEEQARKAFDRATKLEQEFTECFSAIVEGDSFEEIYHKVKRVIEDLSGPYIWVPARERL

[2] = molecular target: T1, Disks large homolog 4; assay: Displacement of Cy5-GluN2B from N-terminal His-tagged human full length PSD-95alpha PDZ1 domain (61 to 151 residues) without exon 4b expressed in Escherichia coli BL21(DE3)pLysS by fluorescence polarization assay
Target sequence in this assay (P78352 whole entry, the tested form may be a part): as above

[3] = molecular target: T1, Disks large homolog 4; assay: Displacement of Cy5-CRIPT from N-terminal His-tagged human full length PSD-95alpha PDZ3 domain (309 to 401 residues) without exon 4b expressed in Escherichia coli BL21(DE3)pLysS by fluorescence polarization assay
Target sequence in this assay (P78352 whole entry, looked up, the tested form may be a part): as the sequence (P78352 whole entry, the tested form may be a part) above

[4] = molecular target: Disks large homolog 4 (Rattus norvegicus, UniProt P31016); assay: Inhibition of rat PSD-95 PDZ1 domain interaction with mouse 5HT2A receptor after 18 hrs by pull down assay
Sequence of Disks large homolog 4 (Rattus norvegicus, UniProt P31016) (P31016 whole entry, the tested form may be a part): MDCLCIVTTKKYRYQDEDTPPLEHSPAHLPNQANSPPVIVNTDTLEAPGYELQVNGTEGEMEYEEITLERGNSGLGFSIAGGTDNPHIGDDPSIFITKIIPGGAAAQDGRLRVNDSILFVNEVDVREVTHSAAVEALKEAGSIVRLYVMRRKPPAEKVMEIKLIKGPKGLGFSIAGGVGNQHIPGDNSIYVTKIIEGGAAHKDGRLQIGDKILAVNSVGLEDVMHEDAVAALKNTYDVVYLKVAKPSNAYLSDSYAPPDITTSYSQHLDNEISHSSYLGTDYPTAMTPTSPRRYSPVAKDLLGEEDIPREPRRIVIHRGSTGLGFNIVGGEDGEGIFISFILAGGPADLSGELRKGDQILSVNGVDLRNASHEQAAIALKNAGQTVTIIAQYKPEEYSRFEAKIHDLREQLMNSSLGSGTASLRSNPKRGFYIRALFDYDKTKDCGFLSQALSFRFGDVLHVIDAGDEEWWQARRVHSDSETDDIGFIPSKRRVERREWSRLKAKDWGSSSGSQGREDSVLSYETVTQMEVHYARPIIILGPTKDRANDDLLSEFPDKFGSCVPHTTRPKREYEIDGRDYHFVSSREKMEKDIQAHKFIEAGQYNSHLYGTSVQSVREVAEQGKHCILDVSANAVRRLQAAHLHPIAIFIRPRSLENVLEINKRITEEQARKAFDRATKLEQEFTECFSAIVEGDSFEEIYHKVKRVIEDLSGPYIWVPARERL

[5] = molecular target: T1, Disks large homolog 4; assay: Ratio of Kd for N-terminal His-tagged full length human PSD-95alpha PDZ2 domain (155 to 249 residues) without exon 4b expressed in Escherichia coli BL21(DE3)pLysS by […] method to Ki for N-terminal His-tagged full length human PSD-95alpha PDZ2 domain (155 to 249 residues) without exon 4b expressed in Escherichia coli BL21(DE3)pLysS by fluorescence polarization assay
Target sequence in this assay (P78352 whole entry, looked up, the tested form may be a part): as the sequence (P78352 whole entry, the tested form may be a part) above

[6] = molecular target: T1, Disks large homolog 4; assay: Binding affinity to N-terminal His-tagged full length human PSD-95alpha PDZ2 domain (155 to 249 residues) without exon 4b expressed in Escherichia coli BL21(DE3)pLysS by […] method
Target sequence in this assay (P78352 whole entry, the tested form may be a part): as above

[7] = molecular target: T1, Disks large homolog 4; assay: Potency index, ratio of indole 1 Ki to compound Ki for N-terminal His-tagged full length human PSD-95alpha PDZ2 domain (155 to 249 residues) without exon 4b expressed in Escherichia coli BL21(DE3)pLysS
Target sequence in this assay (P78352 whole entry, looked up, the tested form may be a part): as the sequence (P78352 whole entry, the tested form may be a part) above

SMILES	Ki [1] [µM]	Ki [2] [µM]	inhibition [3]	IC50 [4] [µM]	Ratio [5]	Kd [6] [µM]	Ratio Ki [7]
CC(C)[C@H](NC(=O)c1cn([C@H](C(=O)O)C(C)C)nn1)C(=O)O	> 500	–	–	–	–	–	–
Cc1c(C(=O)O)n(CCCC(=O)O)c2cc(C(=O)O)c(OCc3ccccc3)cc12	> 500	> 1000	inactive	190	–	–	–
CC(C)[C@H](NC(=O)[C@H](C)NC(=O)[C@@H](N)CO)C(=O)O (H-Ser-Ala-Val-OH)	229	480	–	–	–	–	–
Cc1c(C(=O)O)[nH]c2cc(C(=O)O)c(O)cc12	530	> 1000	inactive	–	–	–	–
CC(C)[C@@H](C(=O)O)n1cc([C@H](C)NC(=O)[C@@H](N)[C@@H](C)O)nn1	> 500	–	–	–	–	–	–
CC(C)[C@H](NC(=O)[C@H](C)NC(=O)[C@@H](N)[C@@H](C)O)C(=O)O (H-Thr-Ala-Val-OH)	38	74	–	–	2	101	–
CC(C)[C@H](NC(=O)[C@H](C)n1cc([C@@H](N)[C@@H](C)O)nn1)C(=O)O	289	> 500	inactive	–	2	598	2
